Assay results as given in ChEMBL document CHEMBL3112582, “Identification of novel 7-amino-5-methyl-1,6-naphthyridin-2(1H)-one derivatives as potent PI3K/mTOR dual inhibitors” (Bioorg Med Chem Lett, 2014).

Experiments:
[1] = target: Serine/threonine-protein kinase mTOR (Homo sapiens, UniProt P42345); experiment: Inhibition of mTOR (unknown origin) after 40 mins by TR-FRET assay
[2] = target: Phosphatidylinositol 4,5-bisphosphate 3-kinase catalytic subunit alpha isoform (Homo sapiens, UniProt P42336); experiment: Inhibition of PI3Kalpha (unknown origin) using PIP2/PS as substrate compound preincubated for 15 mins by luciferase-based luminescence assay
Chain of Phosphatidylinositol 4,5-bisphosphate 3-kinase catalytic subunit alpha isoform (P42336 whole entry, canonical isoform): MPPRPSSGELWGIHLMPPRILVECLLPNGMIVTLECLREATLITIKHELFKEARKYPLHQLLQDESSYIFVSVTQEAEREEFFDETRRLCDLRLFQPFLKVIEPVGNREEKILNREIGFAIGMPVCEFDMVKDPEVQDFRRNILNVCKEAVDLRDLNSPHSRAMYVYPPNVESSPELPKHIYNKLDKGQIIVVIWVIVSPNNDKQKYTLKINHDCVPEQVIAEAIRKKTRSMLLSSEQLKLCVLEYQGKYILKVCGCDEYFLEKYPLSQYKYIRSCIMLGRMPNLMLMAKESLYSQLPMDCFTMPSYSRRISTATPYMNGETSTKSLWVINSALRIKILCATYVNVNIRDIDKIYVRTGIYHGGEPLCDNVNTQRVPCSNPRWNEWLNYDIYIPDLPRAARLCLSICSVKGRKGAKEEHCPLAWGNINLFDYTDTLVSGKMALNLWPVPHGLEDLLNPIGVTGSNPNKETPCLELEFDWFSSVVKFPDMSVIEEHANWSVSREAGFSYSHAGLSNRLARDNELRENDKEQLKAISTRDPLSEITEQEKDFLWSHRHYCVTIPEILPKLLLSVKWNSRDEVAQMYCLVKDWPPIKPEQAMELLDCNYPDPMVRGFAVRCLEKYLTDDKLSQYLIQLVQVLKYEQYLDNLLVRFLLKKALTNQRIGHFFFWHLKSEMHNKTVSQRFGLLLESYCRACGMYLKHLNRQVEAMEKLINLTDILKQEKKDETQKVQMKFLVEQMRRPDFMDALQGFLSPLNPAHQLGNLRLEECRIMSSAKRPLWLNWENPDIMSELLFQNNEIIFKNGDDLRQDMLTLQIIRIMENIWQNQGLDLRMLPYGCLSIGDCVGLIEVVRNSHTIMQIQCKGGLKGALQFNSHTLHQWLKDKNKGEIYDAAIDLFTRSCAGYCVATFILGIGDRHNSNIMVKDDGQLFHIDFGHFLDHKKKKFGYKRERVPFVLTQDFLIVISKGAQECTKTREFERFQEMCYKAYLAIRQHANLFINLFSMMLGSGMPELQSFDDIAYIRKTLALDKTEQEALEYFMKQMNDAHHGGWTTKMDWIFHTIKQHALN

[3] = tested on: SK-OV-3; experiment: Antiproliferative activity against human SKOV3 cells after 72 hrs by CellTiter-Glo assay; assay type: functional, cell-based; settings: SK-OV-3, 72 h
[4] = Half life in CD-1 mouse at 1.3 mg/kg, iv; assay type: ADME, organism-based; set-up: dose 1.3 mg/kg, route intravenous; settings: in vivo
[5] = AUC (infinity) in CD-1 mouse at 1.3 mg/kg, iv; assay type: ADME, organism-based; set-up: time infinity, dose 1.3 mg/kg, route intravenous; settings: plasma
[6] = Oral bioavailability in CD-1 mouse at 6.81 mg/kg; assay type: ADME, organism-based; settings: in vivo
[7] = AUC (infinity) in CD-1 mouse at 6.81 mg/kg, po; assay type: ADME, organism-based; set-up: time infinity, dose 6.81 mg/kg, route oral; settings: plasma
[8] = Half life in CD-1 mouse at 6.81 mg/kg, po; assay type: ADME, organism-based; set-up: dose 6.81 mg/kg, route oral; settings: in vivo
[9] = Clearance in CD-1 mouse at 1.3 mg/kg, iv; assay type: ADME, organism-based; set-up: dose 1.3 mg/kg, route intravenous; settings: in vivo

Row | Compound | IC50 [1] [nM] | IC50 [2] [nM] | also measured
1 | COc1ncc(-c2cc3c(C)nc(N)cc3n(C3CCCC3)c2=O)cc1NS(=O)(=O)c1ccc(C(F)(F)F)cc1 | 78.2 | 175 | –
2 | COc1ncc(-c2cc3c(C)nc(N)cc3n(C3CCCC3)c2=O)cc1NS(=O)(=O)c1ccc(F)cc1 | 35 | 72.6 | –
3 | COc1ncc(-c2cc3c(C)nc(N)cc3n(C3CCCC3)c2=O)cc1NS(=O)(=O)c1cccc(F)c1 | 13.9 | 60.5 | –
4 | COc1ncc(-c2cc3c(C)nc(N)cc3n(C3CCCC3)c2=O)cc1NS(=O)(=O)c1ccc(Cl)s1 | 8.49 | 31.2 | –
5 | COc1ncc(-c2cc3c(C)nc(N)cc3n(C3CCOCC3)c2=O)cc1NS(=O)(=O)c1ccc(F)cc1F | 13.4 | 8.6 | –
6 | COc1ncc(-c2cc3c(C)nc(N)cc3n(C3CC3)c2=O)cc1NS(=O)(=O)c1ccc(F)cc1F | – | 39.6 | –
7 | COc1ccc(-c2cc3c(C)nc(N)nc3n2[C@H]2CC[C@H](OCCO)CC2)cn1 | > 10000 | 5550 | –
8 | COc1ncc(-c2cnc3nc(N)nc(C)c3c2)cc1NS(=O)(=O)c1ccc(F)cc1F | 35.3 | – | –
9 | COc1ccc(-c2cc3c(C)nc(N)cc3n(C3CCCC3)c2=O)cn1 | 39 | 13.6 | –
10 | COc1ncc(-c2cc3c(C)nc(N)cc3n(C3CCCC3)c2=O)cn1 | 36.5 | 6.45 | –
11 | COc1ncc(-c2cc3c(C)nc(N)cc3n(C3CCCC3)c2=O)cc1F | 160 | 5.95 | –
12 | Cc1nc(N)cc2c1cc(-c1cnc3[nH]ccc3c1)c(=O)n2C1CCCC1 | 12.3 | 2.45 | –
13 | Cc1nc(N)cc2c1cc(-c1cnc3c(ccn3C)c1)c(=O)n2C1CCCC1 | 82.1 | 15.2 | –
14 | Cc1nc(N)cc2c1cc(-c1cnc3[nH]cnc3c1)c(=O)n2C1CCCC1 | 13.9 | 2.9 | –
15 | Cc1nc(N)cc2c1cc(-c1cnc3[nH]ncc3c1)c(=O)n2C1CCCC1 | 172 | 6 | –
16 | COc1ncc(-c2cc3c(C)nc(N)cc3n([C@H]3CC[C@H](OCCO)CC3)c2=O)cc1NS(=O)(=O)c1ccc(F)cc1F | 8.55 | 2.42 | IC50 [3]: 2100 nM; half-life [4]: 79.8 min; AUC(0-inf) [5]: 8090 ng·h/mL; bioavailability [6]: 8.5%; AUC(0-inf) [7]: 3440 ng·h/mL; half-life [8]: 460 min; clearance [9]: 2.87 mL/min/kg
17 | COc1ncc(-c2cc3c(C)nc(N)cc3n(C3CCCC3)c2=O)cc1NS(C)(=O)=O | 62.6 | 23.1 | –
18 | COc1ncc(-c2cc3c(C)nc(N)cc3n(C3CCCC3)c2=O)cc1NS(=O)(=O)C1CC1 | 141 | 69.1 | –
19 | COc1ncc(-c2cc3c(C)nc(N)cc3n(C3CCCC3)c2=O)cc1NS(=O)(=O)c1ccccc1 | 19.2 | 117 | –
20 | COc1ccc(S(=O)(=O)Nc2cc(-c3cc4c(C)nc(N)cc4n(C4CCCC4)c3=O)cnc2OC)cc1 | 65.6 | 174 | –
21 | COc1ncc(-c2cc3c(C)nc(N)cc3n(C3CCCC3)c2=O)cc1NS(=O)(=O)c1ccc(C#N)cc1 | 24.7 | 14.3 | –

The next lines start with results.

Row | IC50 [1] [nM] | IC50 [2] [nM] | Compound | also measured
22 | 30.1 | – | COc1ccc(-c2cc3c(C)nc(N)nc3n(C3CCCC3)c2=O)cn1 | –
23 | – | 37.3 | COc1ncc(-c2cc3c(C)nc(N)cc3n(C3CCCC3)c2=O)cc1NS(=O)(=O)c1ccccc1F | –
24 | 28.7 | 9.9 | COc1ncc(-c2cc3c(C)nc(N)cc3n([C@H]3CC[C@H](O)CC3)c2=O)cc1NS(=O)(=O)c1ccc(F)cc1F | –
25 | 126 | 42.8 | COc1ncc(-c2cc3c(C)nc(N)cc3n(C(C)C)c2=O)cc1NS(=O)(=O)c1ccc(F)cc1F | –
26 | > 10000 | > 10000 | COc1ccc(-c2cn([C@H]3CC[C@H](OCCO)CC3)c3nc(N)nc(C)c23)cn1 | –
27 | 18.4 | 35.6 | COc1ncc(-c2cnc3nc(N)nc(-c4ccncc4)c3c2)cc1NS(=O)(=O)c1ccc(F)cc1F | –
28 | 2.32 | 3.43 | COc1ncc(-c2ccc3nc(N)nc(C)c3c2)cc1NS(=O)(=O)c1ccc(F)cc1F | –
29 | 11.2 | 35.4 | COc1ccc(-c2cc3c(C)nc(N)cc3n([C@H]3CC[C@H](OCCO)CC3)c2=O)cn1 | –
30 | 33.9 | 12 | COc1ncc(-c2cc3c(C)nc(N)cc3n(C3CCCC3)c2=O)cc1NS(=O)(=O)c1ccc(F)cc1F | –
